In patent US6916843B1, “Anti-inflammatory actions of cytochrome P450 expoxygenase-derived eicosanoids” (The United States of America as represented by the …, priority 1999, dated 2005):

Target: T1, CYP2J2 (Homo sapiens, UniProt P51589)
T1 construct: The CYP2J2 cDNA (1.9 kb) or GFP cDNA (0.75 kb) were subcloned into the plasmid pcDNA3.1; expressed in transfected cells; host or cells: bovine aortic endothelial cells (BAECs), transient transfection with pcDNA3.1/CYP2J2
T1 sequence (P51589 1-502): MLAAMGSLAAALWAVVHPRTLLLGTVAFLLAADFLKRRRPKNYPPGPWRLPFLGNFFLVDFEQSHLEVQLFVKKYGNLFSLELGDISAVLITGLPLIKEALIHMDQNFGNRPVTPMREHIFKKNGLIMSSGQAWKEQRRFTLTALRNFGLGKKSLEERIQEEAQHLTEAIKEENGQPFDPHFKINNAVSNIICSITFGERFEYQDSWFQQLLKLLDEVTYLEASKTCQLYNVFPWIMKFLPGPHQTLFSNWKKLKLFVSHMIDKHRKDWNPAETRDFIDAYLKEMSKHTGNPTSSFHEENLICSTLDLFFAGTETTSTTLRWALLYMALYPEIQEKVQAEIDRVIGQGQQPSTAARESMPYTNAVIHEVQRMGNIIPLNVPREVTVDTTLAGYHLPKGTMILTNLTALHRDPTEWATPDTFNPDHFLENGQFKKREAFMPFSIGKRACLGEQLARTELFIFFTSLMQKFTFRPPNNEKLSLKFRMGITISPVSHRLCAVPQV
Assay: Arachidonic acid epoxygenase metabolite formation in CYP2J2-transfected bovine aortic endothelial cells (HPLC)
Experimental: To study the formation of EETs by CYP2J2 in endothelial cells, we measured EET synthesis from bovine endothelial cells transfected with CYP2J2 cDNA. Early passage bovine aortic endothelial cells were grown to 60-70% confluence and transfected with either pcDNA3.1 or pcDNA3.1/CYP2J2 using Fugene™ 6 reagent (Boehringer Mannheim Corp.) according to the manufacturer's instructions. Using this method, the transfection efficiency was 10-20%. Forty-eight hours post-transfection, cells were washed twice with phosphate-buffered saline and incubated with freshly purified [^3H]arachidonic acid (185 Ci/mmol, 4-5 μCi/175 mm^2 flask) and unlabeled arachidonic acid (10 μM) was added before addition of arachidonic acid. At various time points, the media and cells were removed and extracted with diethyl ether. The combined organic phases were dried under a nitrogen stream, resolved by reverse-phase high performance liquid chromatography (HPLC) and quantified by liquid scintillation as described by Wu et al., 271 J. Biol. Chem. 3460 (1996). […]
These control GFP-transfected cells metabolized radiolabeled arachidonic acid to epoxygenase metabolites (EETs and DHETs) at a rate of ˜8 pmol/min/10^7 cells (FIG. 6). Endothelial cell arachidonic acid metabolism was determined as follows: Forty-eight hours after transfection with either pcDNA3.1/GFP or pcDNA3.1/CYP2J2, BAECs were incubated with freshly purified [5, 6, 8, 9, 11, 12, 14, 15-^3H]arachidonic acid (185 Ci/mmol, 4-5 μCi/175-mm^2 flask) in serurm-free culture medium at 37° C. for 30-120 min. […] The BAECs and culture medium were then collected and the reaction products extracted into ethyl ether, dried under a nitrogen stream, analyzed by reverse-phase HPLC, and quantified by on-line liquid scintillation using a Radiomatic Flo-One β detector (Radiomatic Instruments, Tampa, Fla.) as described (Wu et al., 271 J. Biol. Chem. 12551 (1996), Node et al., 285 Science 1276-1279 (1999)). […]

CYP2J2: CYP2J2 cDNA (1.9 kb) subcloned into plasmid pcDNA3.1, transfected into endothelial cells
rate of formation of epoxygenase metabolites (EETs and DHETs): 17.8±2.3 pmol/minute/10^7 cells
